Assay results as given in patent US4959482A, “Pyrrolidinone compounds and pharamaceutical compositions containing same” (Biofor, Ltd., priority 1988, dated 1990).

How the values were obtained:
[1] = U.S. Pat. No. 4,357,345; cited from earlier work
[2] = Khimiya Geterotsiklicheskikh Soedinenii, Vol. 12: 1660-1664 (1971); cited from earlier work
yeast-induced fever = experiment: Antipyretic Evaluation (yeast-induced fever in rats); assay type: in vivo, male Sprague-Dawley rats; details: 300 mg/kg, oral by gavage nineteen hours after yeast injection
Experimental: Antipyretic: This activity was evaluated by creating a yeast-induced fever in rats according to a modified method of the procedure described by Loux et al in "Toxicology and Applied Pharmacology", Vol. 22: page 672 (1972). In this assay rats injected with yeast in distilled water were dosed with test compounds, aspirin (positive control) and a vehicle (negative control) and the observed differences in body temperature were analyzed statistically.
Antipyretic activity was evaluated using a modification of the test described by Loux et al, in Toxicology and Applied Pharmacology, 22:672 (1972), that is, yeast-induced fever in rats. Each test group consisted of ten male Sprague-Dawley rats (Charles River Laboratories), weighing 180-225 grams each. Eighteen hours prior to compound administration the rats were weighed and body temperatures were recorded. Food was removed with water available ad libitum. […]
Test compounds suspended in 0.25% methylcellulose (0.25% MC) or olive oil were administered orally by gavage nineteen hours following the yeast injection. Body temperatures were taken and recorded one hour after compound administration. […] The mean temperature of the compound-treated groups, positive control group (Aspirin) and negative control group (vehicle) were calculated at 18 hours and 20 hours. The data was analyzed statistically using a paired-samples Student's t-Test.

[3] = test system: acetylcholine-induced writhing; experiment: Acetylcholine Writhing Assay; assay type: in vivo, male CD-1 mice; details: Mus musculus, 0.75 h; oral by gavage, 45 minutes before intraperitoneal acetylcholine; writhes counted for 10 minutes
Experimental: Analgesic: The "Acetylcholine Writhing Assay" (ACH) of Collier et al [Nature; Vol. 204: page 1316 (1964)]was employed. In this study the test compounds were administered orally to mice and 45 minutes later the mice were injected with acetylcholine. The frequency of writhing was counted in each animal and the response elicited in the drug-treated mice was compared with the response of those given acetylcholine alone.
Analgesic activity was evaluated via the mouse acetylcholine writing test using a modification of the procedure described by Collier, et al in Nature (New Biol.) Vol. 204; page 1316 (1964) and Br. J. Pharmacol, Chemother, Vol. 32: page 295 (1968). Each test group consisted of ten male CD-1 mice (Charles River Laboratories) weighing 18-28 grams each. Test compounds suspended in a mixture of 0.25% methylcellulose solution in […] were administered orally by gavage and forty five minutes later the mice were injected intraperitoneally with acetylcholine (0.55 mg/ml in 0.25% methylcellulose). The number of writhes in each group of mice were counted for 10 minutes immediately following the injection of acetylcholine and the percent inhibition was calculated as follows: [formula] Four dose levels were used to calculate the ED50 of the test compound.

[4] = test system: Adjuvant arthritis (hind paw edema); experiment: Adjuvant Arthritis Assay; Developing; assay type: in vivo, female Lewis rats; details: Rattus norvegicus, 96 h, dosed once daily for 4 days in 0.25% methylcellulose, inhibition of hind paw edema on fifth day
Experimental: Anti-Inflammatory: This activity was evaluated via a modification of the Adjuvant Arthritis Assay (AA) described by S. […] This assay measures the ability of the test compound to antagonize local edema, a characteristic of the inflammatory response. […] The left and right rear paws of female Lewis rats (Charles River Laboratories) weighing 160-180 grams each were measured by mercury displacement prior to injection (Day Zero). Adjuvant arthritis was induced in this rat colony by subcutaneous injection of Mycobacterium butyricum (0.75 mg in 0.1 ml light mineral oil, Fisher) using an automated Cornwall syringe. On days 11-15 post-adjuvant the injected animals with 0.25 to 0.75 ml. paw edema were selected and distributed evenly, according to edema size, into control and experimental groups of ten rats each. Vehicle control and drug treatments were assigned to the groups at random. The assay was performed using a variable dose level for each test compound per kilogram per day in 0.25% methylcellulose vehicle. All animals were dosed once daily for 4 days and on the fifth day both hind paw volumes were again measured using mercury displacement. The hind paw edema was determined for each rat by subtracting the hind paw volume measured on Day Zero from the hind paw volume measured on the fifth day of the study. Group means were determined and the drug effect was calculate as percent inhibition of the hind paw edema according to the following equation: [formula] […] The known anti-inflammatory NAPROXEN was also tested for comparison purposes.

LD50 (acute toxicity) = details: rat, in vivo; printed after the oral four-day ulcerogenicity study in female Lewis rats
[5] = test system: Adjuvant arthritis (hind paw edema); experiment: Adjuvant Arthritis Assay; Immunomodulatory; assay type: in vivo, Lewis female rats; details: 50 mg/kg, oral, Day 5 to 9; paw edema on Day 15
Experimental: Immunomodulatory: This activity was determined by using a Modified Adjuvant Assay procedure in which female rats were injected with Mycobacterium butyricum to induce hind paw edema. The test compounds were administered orally and the difference in volume between dosed and non-dosed paws was determined.
Lewis female rats were injected in the tail subcutaneously with Mycobacterium butyricum (0.75 mg in 0.1 ml light mineral oil, Fisher) on Day Zero. Prior to injection the volumes of the left and right rear paws were measured by mercury displacement. All rats were dosed orally with vehicle or test compounds on Day 5 to 9 inclusive. The volume of both hind paws were determined on Day 15 and the percent inhibitions were calculated based upon average edema on Day 15 relative to the edema mean in the control group.

[6] = test system: Adjuvant arthritis (paw edema); experiment: Adjuvant Arthritis Assay; Established; assay type: in vivo, rats; details: Rattus norvegicus, 552 h; oral, once daily on days 19-22 post adjuvant; paw volume on day 23
Experimental: In this assay the differences between dosed and non-dosed paw values were determined postadjuvant. […] On day 19 post adjuvant all rats were evenly distributed according to edema size. Doses of treatment or vehicle were administered orally to all rats once daily on days 19-22 inclusive. Final paw volumes were determined on day 23 post adjuvant.

## CC(C)(C)c1cc(S(=O)(=O)c2ccccc2)cc(C(C)(C)C)c1O [2,6-di-(tert-butyl)-4-(phenylsulfonyl)phenol]
[1]
  anti-inflammatory activity: absence of anti-inflammatory activity

## CC(C)(C)c1cccc(C(C)(C)C)c1O [2,6-di-(tert-butyl)phenol]
[1]
  anti-inflammatory activity: absence of anti-inflammatory activity

## CC(C)(C)c1cc(C=Cc2ccccn2)cc(C(C)(C)C)c1O [2-[2-(3',5'-di-tert-butyl-4'-hydroxyphenyl)ethenyl]pyridine]
[2]
  effectiveness in the treatment of tumors: effective in the treatment of tumors

## Cc1cc(C(C)(C)C)c(O)c(C(C)(C)C)c1 [3,5-di(tert-butyl)-4-hydroxytoluene]
[1]
  anti-inflammatory activity: little or no value as an anti-inflammatory agent

## CC(C)(C)c1cc(C(=O)c2ccccc2Cl)cc(C(C)(C)C)c1O [4-(2-chlorobenzoyl)-2,6-di-(tert-butyl)phenol]
[1]
  anti-inflammatory activity: absence of anti-inflammatory activity

## CC(C)(C)c1cc(C(=O)c2cc(C(=O)O)ccc2Cl)cc(C(C)(C)C)c1O [4-(5-carboxy-2-chlorobenzoyl)-2,6-di-(tert-butyl)phenol]
[1]
  anti-inflammatory activity: absence of anti-inflammatory activity

## CC(C)(C)c1cc(C=Cc2ccncc2)cc(C(C)(C)C)c1O [4-[2-(3',5'-di-tert-butyl-4'-hydroxyphenyl)ethenyl]pyridine]
[2]
  effectiveness in the treatment of tumors: effective in the treatment of tumors

## CC(=O)c1cc(C(C)(C)C)c(O)c(C(C)(C)C)c1 [4-acetyl-2,6-(di-tert-butyl)phenol]
[1]
  anti-inflammatory activity: absence of anti-inflammatory activity

## CC(C)(C)c1cc(C(N)=O)cc(C(C)(C)C)c1O [4-carboxamido-2,6-di-(tert-butyl)phenol]
[1]
  anti-inflammatory activity: absence of anti-inflammatory activity

## CCCCCCCCc1cc(C(C)(C)C)c(O)c(C(C)(C)C)c1 [4-n-octyl-2,6-di-(tert-butyl)phenol]
[1]
  anti-inflammatory activity: absence of anti-inflammatory activity

## CC(=O)Oc1ccccc1C(=O)O [Aspirin]
yeast-induced fever
  Change in Temperature, 18-20 Hour Period: -2.05 °C

## CC(C)(C)c1cc(N2CCCC2=O)cc(C(C)(C)C)c1O [Example 1, 1-(3,5-Di-tert-Butyl-4-Hydroxyphenyl)Pyrrolidin-2-One]
[3]
  ED50: 13 mg/kg
[4]
  ED50: 21 mg/kg
LD50 (acute toxicity)
  LD50: > 1000 mg/kg
[5]
  % Inhibition (Adjuvant Arthritis Data-Immunomodulatory): 39%
[6]
  ED50: 36 mg/kg

## CC(C)(C)c1cc(N2CCCCC2=O)cc(C(C)(C)C)c1O [Example 2, 1-(3,5-Di-tert-Butyl-4-Hydroxyphenyl)Piperidin-2-One]
[4]
  ED50: 34 mg/kg

## COc1ccc2cc([C@H](C)C(=O)O)ccc2c1 [NAPROXEN]
[3]
  ED50: 6.2 mg/kg
[4]
  ED50: 28 mg/kg
[6]
  ED50: 28 mg/kg
